In patent US8008329B2 (Dong Wha Pharmaceutical Co., Ltd., priority 2008, dated 2011):
Marks after values point to notes of the source that are not given here.

Test system: osteoclast differentiation
Experiment: Osteoclast differentiation in co-culture of mouse bone marrow cells and ST2 cells, TRAP staining (Examples 8-9)
Format: cell-based
Conditions: for % number of osteoclast (vs. solvent control group): 0.1 μM each, day 7; for activity at 0.1 µM: Mus musculus, Osteoclast, 168 h, Individual treatment (compounds), day 7, read-out: % number of osteoclast (vs. solvent control group)
Outline: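 Readout was TRAP-positive multinucleated (≥6 nuclei) cells on day 7, reported as % of 0.1% DMSO control, mean±SD of 4 wells. Cells were mouse (male ddY) bone marrow plus ST2 co-cultures driven by 10^−8 M vitamin D3/dexamethasone. Benzamidines, alendronic acid or risedronic acid were added at 0.1 μM alone or combined, with media renewed days 3 and 5.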

[1] = Combination treatment (alendronic acid + compounds)
[2] = Combination treatment (risedronic acid + compounds)

CN1CCN(CCc2sc(C3CCCCC3)nc2-c2ccc(OCCCCCOc3ccc(C(=N)NO)cc3)cc2)CC1 [Compound 247, N-hydroxy-4-[5-(4-{2-cyclohexyl-5-[2-(4-methyl-piperazin-1-yl)-ethyl]-thiazol-4-yl}-phenoxy)-pentyloxy]-benzamidine]
% number of osteoclast (vs. solvent control group) [1]: 39 ± 3.7^ab % | % number of osteoclast (vs. solvent control group) [2]: 17 ± 4.5^ac % | activity at 0.1 µM: 63 ± 4.2%

N=C(NO)c1ccc(OCCCCCOc2ccc(-c3nc(C4CCCCC4)sc3CCNCCN3CCOCC3)cc2)cc1 [Compound 248, N-hydroxy-4-[5-(4-{2-cyclohexyl-5-[2-(2-morpholin-4-yl-ethylamino)-ethyl]-thiazol-4-yl}-phenoxy)-pentyloxy]-benzamidine]
% number of osteoclast (vs. solvent control group) [1]: 33 ± 5.6^b % | % number of osteoclast (vs. solvent control group) [2]: 27 ± 4.9^ac % | activity at 0.1 µM: 49 ± 8.7%

N=C(NO)c1ccc(OCCCCCOc2ccc(-c3nc(C4CCCCC4)sc3CCN3CCSCC3)cc2)cc1 [Compound 249, N-hydroxy-4-(5-{4-[2-cyclohexyl-5-(2-thiomorpholin-4-yl-ethyl)-thiazol-4-yl]-phenoxy}-pentyloxy)-benzamidine]
% number of osteoclast (vs. solvent control group) [1]: 24 ± 4.0^ab % | % number of osteoclast (vs. solvent control group) [2]: 13 ± 4.8^ac % | activity at 0.1 µM: 36 ± 4%

CN(C)CCc1sc(C2CCCCC2)nc1-c1ccc(OCCCCCOc2ccc(C(=N)NO)cc2)cc1 [Compound 250, N-hydroxy-4-(5-{4-[2-cyclohexyl-5-(2-dimethylamino-ethyl)-thiazol-4-yl]-phenoxy}-pentyloxy)-benzamidine]
% number of osteoclast (vs. solvent control group) [1]: 45 ± 5.2^b % | % number of osteoclast (vs. solvent control group) [2]: 12 ± 1.4^ac % | activity at 0.1 µM: 52 ± 7.2%

CCCN(CCC)CCc1sc(C2CCCCC2)nc1-c1ccc(OCCCCCOc2ccc(C(=N)NO)cc2)cc1 [Compound 251, N-hydroxy-4-(5-{4-[2-cyclohexyl-5-(2-dipropylamino-ethyl)-thiazol-4-yl]-phenoxy}-pentyloxy)-benzamidine]
% number of osteoclast (vs. solvent control group) [1]: 20 ± 6.4^ab % | % number of osteoclast (vs. solvent control group) [2]: 18 ± 4.4^ac % | activity at 0.1 µM: 45 ± 9.6%

N=C(NO)c1ccc(OCCCCCOc2ccc(-c3nc(C4CCCCC4)sc3CCNC3CC3)cc2)cc1 [Compound 252, N-hydroxy-4-(5-{4-[2-cyclohexyl-5-(2-cyclopropylamino-ethyl)-thiazol-4-yl]-phenoxy}-pentyloxy)-benzamidine]
% number of osteoclast (vs. solvent control group) [1]: 33 ± 6.6^b % | % number of osteoclast (vs. solvent control group) [2]: 19 ± 4.0^ac % | activity at 0.1 µM: 44 ± 2.7%

N=C(NO)c1ccc(OCCCCCOc2ccc(-c3nc(-c4ccccc4)sc3CCN3CCOCC3)cc2)cc1 [Compound 254, N-hydroxy-4-(5-{4-[5-(2-morpholin-4-yl-ethyl)-2-phenyl-thiazol-4-yl]-phenoxy}-pentyloxy)-benzamidine]
% number of osteoclast (vs. solvent control group) [1]: 29 ± 6.3^b % | % number of osteoclast (vs. solvent control group) [2]: 11 ± 2.5^ac % | activity at 0.1 µM: 40 ± 8.3%

CCc1nc(-c2ccc(OCCCCCOc3ccc(C(=N)NO)cc3)cc2)c(CCN2CCOCC2)s1 [Compound 255, N-hydroxy-4-(5-{4-[2-ethyl-5-(2-morpholin-4-yl-ethyl)-thiazol-4-yl]-phenoxy}-pentyloxy)-benzamidine]
% number of osteoclast (vs. solvent control group) [1]: 18 ± 1.7^ab % | % number of osteoclast (vs. solvent control group) [2]: 12 ± 3.1^ac % | activity at 0.1 µM: 50 ± 3.9%

CCc1nc(-c2ccc(OCCCCCOc3ccc(C(=N)NO)cc3)cc2)c(CCN2CCSCC2)s1 [Compound 256, N-hydroxy-4-(5-{4-[2-ethyl-5-(2-thiomorpholin-4-yl-ethyl)-thiazol-4-yl]-phenoxy}-pentyloxy)-benzamidine]
% number of osteoclast (vs. solvent control group) [1]: 26 ± 3.0^ab % | % number of osteoclast (vs. solvent control group) [2]: 12 ± 2.4^ac % | activity at 0.1 µM: 49 ± 0.9%
